Bounds are passed on as bounds.

The experiment addresses T1, Alkanal monooxygenase alpha chain (Vibrio harveyi, UniProt P07740).
T1 sequence (P07740 whole entry): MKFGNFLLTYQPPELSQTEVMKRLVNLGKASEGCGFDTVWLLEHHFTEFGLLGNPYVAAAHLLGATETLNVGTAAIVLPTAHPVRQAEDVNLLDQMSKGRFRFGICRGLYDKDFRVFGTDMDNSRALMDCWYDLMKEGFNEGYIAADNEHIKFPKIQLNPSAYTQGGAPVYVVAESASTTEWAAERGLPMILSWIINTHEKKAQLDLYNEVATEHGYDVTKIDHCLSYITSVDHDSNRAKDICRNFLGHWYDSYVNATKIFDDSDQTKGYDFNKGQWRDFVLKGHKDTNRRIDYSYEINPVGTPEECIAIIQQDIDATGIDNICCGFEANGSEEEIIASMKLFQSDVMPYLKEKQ
Put plainly: bacterial growth suppression, V. harveyi – absorbance, counter-screen for quorum sensing inhibitor project, dose response (AID 434943).
Molecule `C=Cn1c(C(=O)O)ccc1-c1ccc(CC)cc1` displayed a concentration for a half-maximal effect (EC50) greater than 160 µM. Regarding `COc1cc(NC(=O)CN2C(=O)NC(c3ccccc3)(c3ccccc3)C2=O)cc(OC)c1` [MLS001176525], the concentration for a half-maximal effect (EC50) was greater than 160 µM.

In the case of `CCc1ccc(S(=O)(=O)Nc2ccc(Br)cn2)cc1` [MLS001211346], the concentration giving a half-maximal response (EC50) was greater than 160 µM. Turning to `CCCc1ccc(S(=O)(=O)N(C)S(=O)(=O)c2ccc(F)cc2)cc1` [N-(4-fluorophenyl)sulfonyl-N-methyl-4-propylbenzenesulfonamide], the EC50 is greater than 160 µM. The same measure for `CN(C)S(=O)(=O)c1ccc(NC(=S)NC(=O)Cc2ccccc2)cc1` [N-[[4-(dimethylsulfamoyl)phenyl]carbamothioyl]-2-phenyl-ethanamide]: greater than 160 µM; for `Cc1cccc(NS(=O)(=O)c2ccc(Oc3ccccc3)cc2)n1` [SMR000071466]: greater than 160 µM; for `Cn1cnc(S(=O)(=O)Nc2ccc(OC(F)(F)F)cc2)c1` [SMR000314513]: greater than 160 µM.

As usually defined, the EC50 is the concentration at which the effect is half-maximal. A higher EC50 goes with a less potent agent.

Source of the values: BindingDB's records for doi:10.7270/Q2736PC9 (Broad Institute, 2010).
